Measurements published in EP2100894A1, “Pyridopyrimidines used as Plk1 (polo-like kinase) inhibitors” (4SC AG, priority 2008, dated 2009).
pIC50: −log10 of the molar value.

Target: T1, PIk1 (Homo sapiens, UniProt P53350)
T1 construct: His tag (histidine tag) (N); made in house; host or cells: SF9 insect cells
Test: PIk1 kinase activity inhibition assay (33P incorporation into alpha casein, flash plates)
Type: biochemical
Conditions: recombinant N-terminally histidine-tagged PIk1, alpha casein as substrate, 100 nM Li-ATP, 80 minutes at 30°C
Experimental: The inhibition of PIk1 kinase activity can be measured using recombinant PIk1 protein expressed as an N-terminally histidine-tagged protein in SF9 insect cells and alpha casein as substrate. The PIk1 assay is run in 96 well plates by incubating 50 to 100 ng per well recombinant PIk1, 500 ng per well alpha casein (Sigma, # C-6780) as substrate, 10 µl of compound of invention (test compounds were dissolved as 20 mM solutions in dimethylsulfoxide (DMSO) and subsequently diluted), and 100 nM Li-ATP (including ^33P-ATP) in 100 µl of reaction buffer ([…], pH 7.5; 3 mM MgCl2; 3 mM MnCl2; 3 µM Na-Orthovanadat; 1 mM DTT; 1 µg/ml PEG 8000) for 80 minutes at 30°C. The reactions are terminated by adding 100 µl stopping buffer (2% H3PO4 for 5 minutes) and are washed 3 times with washing solution (0,9% NaCl). Determining ^33P incorporated into the protein substrate alpha casein, the detection is based on the adhesion of the phosphorylated protein to the surface of scintillator-coated flash plates (Perkin Elmer, USA; # SMP-200). Phosphorylation of alpha casein is measured by counting the radioactivity bound to the plate for 60 sec. using a plate reader (Perkin Elmer, USA; Wallac Microbeta). By this method, the IC50 value of the PIk1 inhibition is determined as described above. […]

T1 sequence (P53350 whole entry): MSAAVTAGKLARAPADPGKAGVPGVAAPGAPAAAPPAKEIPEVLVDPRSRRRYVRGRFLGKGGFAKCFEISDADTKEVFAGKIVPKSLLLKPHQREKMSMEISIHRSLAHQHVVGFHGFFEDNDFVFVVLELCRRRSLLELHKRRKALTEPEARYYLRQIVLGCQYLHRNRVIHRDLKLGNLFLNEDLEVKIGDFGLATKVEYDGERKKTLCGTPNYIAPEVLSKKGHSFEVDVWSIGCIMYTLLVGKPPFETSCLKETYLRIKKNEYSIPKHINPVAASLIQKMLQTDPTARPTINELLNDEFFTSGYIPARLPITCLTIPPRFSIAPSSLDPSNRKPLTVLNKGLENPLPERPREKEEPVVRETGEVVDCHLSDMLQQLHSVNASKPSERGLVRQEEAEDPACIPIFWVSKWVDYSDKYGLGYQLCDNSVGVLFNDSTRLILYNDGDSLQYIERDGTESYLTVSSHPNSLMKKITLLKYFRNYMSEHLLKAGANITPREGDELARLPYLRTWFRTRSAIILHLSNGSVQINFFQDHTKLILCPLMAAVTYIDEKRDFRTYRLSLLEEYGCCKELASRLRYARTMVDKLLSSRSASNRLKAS

pIC50 | SMILES
> 8.00 | COc1cc(C(=O)NC2CCN(C)CC2)ccc1Nc1ncc2c(n1)c(-c1cccs1)c(OCC1CC1)c(=O)n2C [Example 53, 4-{[7-(cyclopropylmethoxy)-5-methyl-6-oxo-8-(2-thienyl)-5,6-dihydro-pyrido[3,2-d]pyrimidin-2-yl]amino}-3-methoxy-N-(1-methylpiperidin-4-yl)benzamide]
> 8.00 | COc1cc(C(=O)NC2CCN(C)CC2)ccc1Nc1ncc2c(n1)c(-c1csc(C)c1)c(OCC1CC1)c(=O)n2C [Example 60, 4-{[7-(cyclopropylmethoxy)-5-methyl-8-(5-methyl-3-thienyl)-6-oxo-5,6-dihydropyrido[3,2-d]pyrimidin-2-yl]amino}-3-methoxy-N-(1-methylpiperidin-4-yl)benzamide]
> 8.00 | COc1cc(C(=O)NC2CCN(C)CC2)ccc1Nc1ncc2c(n1)c(-c1ccc(C)cc1)c(OCC1CC1)c(=O)n2C [Example 62, 4-{[7-(cyclopropylmethoxy)-5-methyl-8-(4-methylphenyl)-6-oxo-5,6-dihydropyrido[3,2-d]pyrimidin-2-yl]amino}-3-methoxy-N-(1-methylpiperidin-4-yl)benzamide]
> 8.00 | COc1cc(C(=O)NC2CCN(C)CC2)ccc1Nc1ncc2c(n1)c(-c1cscn1)c(OCC1CC1)c(=O)n2C [Example 63, 4-{[7-(cyclopropylmethoxy)-5-methyl-6-oxo-8-(1,3-thiazol-4-yl)-5,6-dihydropyrido[3,2-d]pyrimidin-2-yl]amino}-3-methoxy-N-(1-methylpiperidin-4-yl)benzamide]
> 8.00 | Cc1cc(C(=O)NC2CCN(C)CC2)ccc1Nc1ncc2c(n1)c(-c1ccsc1)c(OCC1CC1)c(=O)n2C [Example 66, 4-{[7-(cyclopropylmethoxy)-5-methyl-6-oxo-8-(3-thienyl)-5,6-dihydropyrido[3,2-d]pyrimidin-2-yl]amino}-3-methyl-N-(1-methylpiperidin-4-yl)benzamide]
> 8.00 | COc1cc(C(=O)NC2CCN(C)CC2)ccc1Nc1ncc2c(n1)c(-c1ccncc1)c(OCC1CC1)c(=O)n2C [Example 68, 4-{[7-(cyclopropylmethoxy)-5-methyl-6-oxo-8-pyridin-4-yl-5,6-dihydro-pyrido[3,2-d]pyrimidin-2-yl]amino}-3-methoxy-N-(1-methylpiperidin-4-yl)benzamide]
> 8.00 | CN1CCC(NC(=O)c2ccc(Nc3ncc4c(n3)c(-c3ccsc3)c(OCC3CC3)c(=O)n4C)c(Cl)c2)CC1 [Example 70, 3-chloro-4-{[7-(cyclopropylmethoxy)-5-methyl-6-oxo-8-(3-thienyl)-5,6-dihydropyrido[3,2-d]pyrimidin-2-yl]amino}-N-(1-methylpiperidin-4-yl)benzamide]
> 8.00 | CCc1cc(C(=O)NC2CCN(C)CC2)ccc1Nc1ncc2c(n1)c(-c1ccsc1)c(OCC1CC1)c(=O)n2C [Example 72, 4-{[7-(cyclopropylmethoxy)-5-methyl-6-oxo-8-(3-thienyl)-5,6-dihydro-pyrido[3,2-d]pyrimidin-2-yl]amino}-3-ethyl-N-(1-methylpiperidin-4-yl)benzamide]
> 8.00 | CCOc1cc(C(=O)NC2CCN(C)CC2)ccc1Nc1ncc2c(n1)c(-c1ccsc1)c(OCC1CC1)c(=O)n2C [Example 75, 4-{[7-(cyclopropylmethoxy)-5-methyl-6-oxo-8-(3-thienyl)-5,6-dihydro-pyrido[3,2-d]pyrimidin-2-yl]amino}-3-ethoxy-N-(1-methylpiperidin-4-yl)benzamide]

The next lines start with the compound.

SMILES | pIC50
COc1cc(C(=O)NC2CCN(C)CC2)ccc1Nc1ncc2c(n1)c(-c1ccc(F)cc1)c(OCC1CC1)c(=O)n2C [Example 52, 4-{[7-(cyclopropylmethoxy)-8-(4-fluorophenyl)-5-methyl-6-oxo-5,6-dihydropyrido[3,2-d]pyrimidin-2-yl]amino}-3-methoxy-N-(1-methylpiperidin-4-yl)benzamide] | > 8.00
COc1cc(C(=O)NC2CCN(C)CC2)ccc1Nc1ncc2c(n1)c(-c1cccc(F)c1)c(OCC1CC1)c(=O)n2C [Example 54, 4-{[7-(cyclopropylmethoxy)-8-(3-fluorophenyl)-5-methyl-6-oxo-5,6-dihydropyrido[3,2-d]pyrimidin-2-yl]amino}-3-methoxy-N-(1-methylpiperidin-4-yl)benzamide] | > 8.00
COc1cc(C(=O)NC2CCN(C)CC2)ccc1Nc1ncc2c(n1)c(-c1cc(C)cs1)c(OCC1CC1)c(=O)n2C [Example 55, 4-{[7-(cyclopropylmethoxy)-5-methyl-8-(4-methyl-2-thienyl)-6-oxo-5,6-dihydropyrido[3,2-d]pyrimidin-2-yl]amino}-3-methoxy-N-(1-methylpiperidin-4-yl)benzamide] | > 8.00
C/C=C/c1c(OC2CC2)c(=O)n(C)c2cnc(Nc3ccc(C(=O)NC4CCN(C)CC4)cc3OC)nc12 [Example 56, 4-({7-(cyclopropyloxy)-5-methyl-6-oxo-8-[(1E)-prop-1-en-1-yl]-5,6-dihydropyrido[3,2-d]pyrimidin-2-yl}amino)-3-methoxy-N-(1-methylpiperidin-4-yl)benzamide] | > 8.00
COc1cc(C(=O)NC2CCN(C)CC2)ccc1Nc1ncc2c(n1)c(C1=CCCC1)c(OCC1CC1)c(=O)n2C [Example 57, 4-{[8-cyclopent-1-en-1-yl-7-(cyclopropylmethoxy)-5-methyl-6-oxo-5,6-dihydropyrido[3,2-d]pyrimidin-2-yl]amino}-3-methoxy-N-(1-methylpiperidin-4-yl)benzamide] | > 8.00
COc1cc(C(=O)NC2CCN(C)CC2)ccc1Nc1ncc2c(n1)c(-c1ccsc1)c(OC1CC1)c(=O)n2C [Example 58, 4-{[7-(cyclopropyloxy)-5-methyl-6-oxo-8-(3-thienyl)-5,6-dihydropyri-do[3,2-d]pyrimidin-2-yl]amino}-3-methoxy-N-(1-methylpiperidin-4-yl)benzamide] | > 8.00
COc1cc(C(=O)NC2CCN(C)CC2)ccc1Nc1ncc2c(n1)c(-c1ccccc1F)c(OCC1CC1)c(=O)n2C [Example 59, 4-{[7-(cyclopropylmethoxy)-8-(2-fluorophenyl)-5-methyl-6-oxo-5,6-dihydropyrido[3,2-d]pyrimidin-2-yl]amino}-3-methoxy-N-(1-methylpiperidin-4-yl)benzamide] | > 8.00
COc1cc(C(=O)NC2CCN(C)CC2)ccc1Nc1ncc2c(n1)c(-c1cccc(C)c1)c(OCC1CC1)c(=O)n2C [Example 61, 4-{[7-(cyclopropylmethoxy)-5-methyl-8-(3-methylphenyl)-6-oxo-5,6-dihydropyrido[3,2-d]pyrimidin-2-yl]amino}-3-methoxy-N-(1-methylpiperidin-4-yl)benzamide] | > 8.00
C/C=C/c1c(OCC2CC2)c(=O)n(C)c2cnc(Nc3ccc(C(=O)NC4CCN(C)CC4)cc3C)nc12 [Example 64, 4-({7-(cyclopropylmethoxy)-5-methyl-6-oxo-8-[(1E)-prop-1-en-1-yl]-5,6-dihydropyrido[3,2-d]pyrimidin-2-yl}amino)-3-methyl-N-(1-methylpiperidin-4-yl)benzamide] | > 8.00
C/C=C/c1c(OCC2CC2)c(=O)n(C)c2cnc(Nc3ccc(C(=O)NC4CCN(C)CC4)cc3CC)nc12 [Example 65, 4-({7-(cyclopropylmethoxy)-5-methyl-6-oxo-8-[(1E)-prop-1-en-1-yl]-5,6-dihydropyrido[3,2-d]pyrimidin-2-yl}amino)-3-ethyl-N-(1-methylpiperidin-4-yl)benzamide] | > 8.00
C/C=C/c1c(OCC2CC2)c(=O)n(C)c2cnc(Nc3ccc(C(=O)NC4CCN(C)CC4)cc3Cl)nc12 [Example 67, 3-chloro-4-({7-(cyclopropylmethoxy)-5-methyl-6-oxo-8-[(1E)-prop-1-en-1-yl]-5,6-dihydropyrido[3,2-d]pyrimidin-2-yl}amino)-N-(1-methylpiperidin-4-yl)benzamide] | > 8.00
COc1cc(C(=O)NC2CCN(C)CC2)ccc1Nc1ncc2c(n1)c(-c1cccnc1)c(OCC1CC1)c(=O)n2C [Example 69, 4-{[7-(cyclopropylmethoxy)-5-methyl-6-oxo-8-pyridin-3-yl-5,6-dihydro-pyrido[3,2-d]pyrimidin-2-yl]amino}-3-methoxy-N-(1-methylpiperidin-4-yl)benzamide] | > 8.00
COc1cc(C(=O)NC2CCN(C)CC2)ccc1Nc1ncc2c(n1)c(-c1ccccc1C)c(OCC1CC1)c(=O)n2C [Example 71, 4-{[7-(cyclopropylmethoxy)-5-methyl-8-(2-methylphenyl)-6-oxo-5,6-dihydropyrido[3,2-d]pyrimidin-2-yl]amino}-3-methoxy-N-(1-methylpiperidin-4-yl)benzamide] | > 7.00
COc1cc(C(=O)NC2CCN(C)CC2)ccc1Nc1ncc2c(n1)c(-c1ccc[nH]1)c(OCC1CC1)c(=O)n2C [Example 73, 4-{[7-(cyclopropylmethoxy)-5-methyl-6-oxo-8-(1H-pyrrol-2-yl)-5,6-dihydro-pyrido[3,2-d]pyrimidin-2-yl]amino}-3-methoxy-N-(1-methylpiperidin-4-yl)benzamide] | > 8.00
COc1cc(C(=O)NC2CCN(C)CC2)ccc1Nc1ncc2c(n1)c(-c1ccccn1)c(OCC1CC1)c(=O)n2C [Example 74, 4-{[7-(cyclopropylmethoxy)-5-methyl-6-oxo-8-pyridin-2-yl-5,6-dihydro-pyrido[3,2-d]pyrimidin-2-yl]amino}-3-methoxy-N-(1-methylpiperidin-4-yl)benzamide] | > 8.00
